In PubChem BioAssay (NCI):
Where “and” joins values, the source holds several entries; their conditions need not be identical. Equal values may be shown once.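 Five compound concentrations were applied to cells in 96-well plates for 48 hours; endpoints were derived by simple linear interpolation of the resulting dose-response curve. Here, GI50 denotes the concentration required for 50% inhibition of growth. At the TGI there is no net growth.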

Experiments:
Assay in all cases: NCI anticancer screen, dose series, 48 h
786-0 renal = system: 786-0 renal
A498 renal = system: A498 renal
A549 NSCLC = system: A549 NSCLC
ACHN renal = system: ACHN renal
BT-549 breast = system: BT-549 breast
CAKI-1 renal = system: CAKI-1 renal
CCRF-CEM leukemia = system: CCRF-CEM leukemia
COLO 205 colon = system: COLO 205 colon
DLD-1 colon = system: DLD-1 colon
DMS 114 small cell lung = system: DMS 114 small cell lung
DMS 273 small cell lung = system: DMS 273 small cell lung
EKVX NSCLC = system: EKVX NSCLC
HCC-2998 colon = system: HCC-2998 colon
HCT-116 colon = system: HCT-116 colon
HCT-15 colon = system: HCT-15 colon
HL-60(TB) leukemia = system: HL-60(TB) leukemia
HOP-18 NSCLC = system: HOP-18 NSCLC
HOP-62 NSCLC = system: HOP-62 NSCLC
HOP-92 NSCLC = system: HOP-92 NSCLC
HT29 colon = system: HT29 colon
IGROV1 ovarian = system: IGROV1 ovarian
K-562 leukemia = system: K-562 leukemia
KM12 colon = system: KM12 colon
KM20L2 colon = system: KM20L2 colon
LOX IMVI melanoma = system: LOX IMVI melanoma
LXFL 529 NSCLC = system: LXFL 529 NSCLC
M14 melanoma = system: M14 melanoma
M19-MEL melanoma = system: M19-MEL melanoma
MALME-3M melanoma = system: MALME-3M melanoma
MCF7 breast = system: MCF7 breast
MDA-MB-231 breast = system: MDA-MB-231 breast
MDA-MB-435 = system: MDA-MB-435
MDA-N = system: MDA-N
MOLT-4 leukemia = system: MOLT-4 leukemia
NCI-H226 lung = system: NCI-H226 lung
NCI-H23 lung = system: NCI-H23 lung
NCI-H460 lung = system: NCI-H460 lung
NCI-H522 lung = system: NCI-H522 lung
NCI/ADR-RES ovarian = system: NCI/ADR-RES ovarian
OVCAR-3 ovarian = system: OVCAR-3 ovarian
OVCAR-4 ovarian = system: OVCAR-4 ovarian
OVCAR-5 ovarian = system: OVCAR-5 ovarian
OVCAR-8 ovarian = system: OVCAR-8 ovarian
PC-3 prostate = system: PC-3 prostate
RPMI-8226 leukemia = system: RPMI-8226 leukemia
RXF 393 renal = system: RXF 393 renal
SF-268 CNS = system: SF-268 CNS
SF-295 CNS = system: SF-295 CNS
SF-539 CNS = system: SF-539 CNS
SK-MEL-2 melanoma = system: SK-MEL-2 melanoma
SK-MEL-28 melanoma = system: SK-MEL-28 melanoma
SK-MEL-5 melanoma = system: SK-MEL-5 melanoma
SK-OV-3 ovarian = system: SK-OV-3 ovarian
SN12C renal = system: SN12C renal
SNB-19 CNS = system: SNB-19 CNS
SNB-75 CNS = system: SNB-75 CNS
SNB-78 CNS = system: SNB-78 CNS
SR leukemia = system: SR leukemia
SW-620 colon = system: SW-620 colon
TK-10 renal = system: TK-10 renal
U251 CNS = system: U251 CNS
UACC-257 melanoma = system: UACC-257 melanoma
UACC-62 melanoma = system: UACC-62 melanoma
UO-31 renal = system: UO-31 renal
XF 498 CNS = system: XF 498 CNS

COc1cc(C2c3cc4c(cc3[C@@H](Nc3ccc(N)cc3)C3COC(=O)[C@H]23)OCO4)cc(OC)c1O (some centres undefined)
GI50 (786-0 renal): 0.514 µM
TGI (786-0 renal): 4.43 µM
GI50 (A498 renal): 0.781 µM
TGI (A498 renal): 6.39 µM
GI50 (A549 NSCLC): 0.317 µM
TGI (A549 NSCLC): 3.46 µM
GI50 (ACHN renal): 0.345 µM
TGI (ACHN renal): 6.05 µM
TGI (BT-549 breast): 8.5 µM
GI50 (CAKI-1 renal): 0.326 µM
TGI (CAKI-1 renal): 0.903 µM and 5.93 µM
GI50 (CCRF-CEM leukemia): 0.271 µM
TGI (CCRF-CEM leukemia): 0.953 µM and 5.61 µM
GI50 (COLO 205 colon): 0.996 µM
TGI (COLO 205 colon): 47.7 µM
TGI (DLD-1 colon): 22.2 µM
GI50 (DMS 114 small cell lung): 0.911 µM
TGI (DMS 114 small cell lung): 8.77 µM
TGI (DMS 273 small cell lung): 5.39 µM
GI50 (EKVX NSCLC): 0.953 µM
TGI (EKVX NSCLC): 10.9 µM
TGI (HCC-2998 colon): 9.07 µM
GI50 (HCT-116 colon): 0.973 µM
TGI (HCT-116 colon): 23 µM
TGI (HCT-15 colon): 22.6 µM
GI50 (HL-60(TB) leukemia): 0.287 µM and 0.422 µM
TGI (HL-60(TB) leukemia): 0.862 µM and 5.63 µM
GI50 (HOP-18 NSCLC): 0.944 µM
TGI (HOP-18 NSCLC): 40.4 µM
TGI (HOP-62 NSCLC): 0.865 µM and 2.5 µM
GI50 (HOP-92 NSCLC): 0.495 µM
TGI (HT29 colon): 54 µM
TGI (IGROV1 ovarian): 16.4 µM
TGI (K-562 leukemia): 46.3 µM
TGI (KM12 colon): 14.3 µM
TGI (KM20L2 colon): 21.4 µM
TGI (LOX IMVI melanoma): 6.48 µM
TGI (LXFL 529 NSCLC): 31 µM
GI50 (M14 melanoma): 0.652 µM
TGI (M14 melanoma): 18.6 µM
GI50 (M19-MEL melanoma): 0.99 µM
TGI (M19-MEL melanoma): 23.7 µM
GI50 (MALME-3M melanoma): 0.849 µM
TGI (MALME-3M melanoma): 19.7 µM
TGI (MCF7 breast): 12.3 µM
TGI (MDA-MB-231 breast): 34.8 µM
TGI (MDA-MB-435): 29.6 µM
TGI (MDA-N): 18.4 µM
GI50 (MOLT-4 leukemia): 0.175 µM and 0.0292 µM
TGI (MOLT-4 leukemia): 0.8 µM and 0.825 µM
GI50 (NCI-H226 lung): 0.336 µM
TGI (NCI-H226 lung): 0.868 µM and 4.7 µM
GI50 (NCI-H23 lung): 0.415 µM
TGI (NCI-H23 lung): 4.85 µM
GI50 (NCI-H460 lung): 0.139 µM
TGI (NCI-H460 lung): 2.36 µM
GI50 (NCI-H522 lung): 0.789 µM
TGI (NCI-H522 lung): 6.57 µM
TGI (NCI/ADR-RES ovarian): 44.5 µM
TGI (OVCAR-3 ovarian): 20 µM
TGI (OVCAR-4 ovarian): 41.6 µM
GI50 (OVCAR-5 ovarian): 0.896 µM
TGI (OVCAR-5 ovarian): 31.6 µM
GI50 (OVCAR-8 ovarian): 0.87 µM
TGI (OVCAR-8 ovarian): 15.8 µM
TGI (PC-3 prostate): 16.5 µM
TGI (RPMI-8226 leukemia): 12 µM
TGI (RXF 393 renal): 13.2 µM
GI50 (SF-268 CNS): 0.89 µM
TGI (SF-268 CNS): 19.3 µM
GI50 (SF-295 CNS): 0.502 µM
TGI (SF-295 CNS): 4.76 µM
GI50 (SF-539 CNS): 0.729 µM
TGI (SF-539 CNS): 6.51 µM
TGI (SK-MEL-2 melanoma): 18.9 µM
TGI (SK-MEL-28 melanoma): 33.9 µM
GI50 (SK-MEL-5 melanoma): 0.701 µM
TGI (SK-MEL-5 melanoma): 7.09 µM
GI50 (SK-OV-3 ovarian): 0.805 µM
TGI (SK-OV-3 ovarian): 17.3 µM
GI50 (SN12C renal): 0.492 µM
TGI (SN12C renal): 6.15 µM
GI50 (SNB-19 CNS): 0.555 µM
TGI (SNB-19 CNS): 17.3 µM
GI50 (SNB-75 CNS): 0.347 µM
TGI (SNB-78 CNS): 60.5 µM
GI50 (SR leukemia): 0.151 µM
TGI (SR leukemia): 0.682 µM and 6.81 µM
GI50 (SW-620 colon): 0.823 µM
TGI (SW-620 colon): 24.5 µM
TGI (TK-10 renal): 23.7 µM
TGI (U251 CNS): 4.2 µM
TGI (UACC-257 melanoma): 28 µM
GI50 (UACC-62 melanoma): 0.711 µM
TGI (UACC-62 melanoma): 11.3 µM
GI50 (UO-31 renal): 0.727 µM
TGI (UO-31 renal): 4.79 µM
GI50 (XF 498 CNS): 0.716 µM
TGI (XF 498 CNS): 13.6 µM
